From patent US20130059879A1, “Small Molecule Inhibitors of PFKFB3 and Glycolytic Flux and Their Methods of Use as Anti-Cancer Therapeutics” (UNIVERSITY OF LOUISVILLE RESEARCH FOUNDATION, INC., priority 2010, published 2013) come the findings set out here.

The subject of one data set is Jurkat cells. The data set is described as follows: Inhibition of 14C-2-deoxyglucose uptake. The format is cell-based. The note with it: Homo sapiens, 3 hours. How it is done:
Inhibition of PFKFB3 results in inhibiting glycolysis. Several feedback or feedforward activation and inhibition mechanisms exist so that, by a feedback mechanism, inhibiting the activity of PFKFB3 may inhibit glucose uptake by cells. An assay was developed to determine if there was inhibition of glucose uptake following exposure to the compounds on the invention. Briefly, Jurkat cells were plated at 1×10^5/mL in RPM′ 1640 supplemented with 10% fetal bovine serum and 50 μg/mL gentamicin sulfate. Cells were immediately treated with vehicle or 5 μmol/L of the compound of the invention for 3 hours and subsequently placed in glucose-free RPMI 1640 for 30 min. ^14C-2-deoxyglucose (0.25 μCi/mL; Perkin Elmer) was added for an additional 60 min and cells were then washed three with ice-cold RPMI 1640 containing no glucose. Cell lysates were collected in 500 μL of 0.1% SDS, and scintillation counts (counts/min) were measured on 400 μL of lysate. Counts were normalized to protein concentration.

A short description of data set [1]: Solubility in solvents and excipients, 1 hour at room temperature, HPLC. Conditions: thermodynamic from solid. The format is physicochemical. On the procedure:
Chemical properties of the compounds of the invention were investigated, including the solubility in several solvents and pharmaceutically accepted excipients. […] Briefly, selected compounds of the invention are dissolved in a small volume of the solvents/excipients of interest at room temperature over 1 hour in typically 1 ml and the concentration is measured by HPLC after filtration.

For a further data set, the system named is MDA-MB-231. Put plainly: Cancer cell proliferation, Alamar Blue assay, 72 hours. The format is cell-based. The note with it: Homo sapiens.
In the next data set the test system is Calu-6. The data set is described as above. Conditions: Homo sapiens, Calu-6. The format is cell-based. The method, boiled down:
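Calu-6 human cancer cells were seeded at 2×10^5 cells/ml in 96 well plates. The next day, an equal volume of media containing the compounds at twice the intended concentration was added. After 72 hours of exposure, inhibition of proliferation was measured with the Alamar Blue assay, run in triplicate, and IC50 values were determined.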

A further data set has as its system NCI-H82. The description is as above. The format is cell-based. Conditions: Homo sapiens, NCI-H82, read-out: IC50 NCl-H82. The method in brief: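 Proliferation of NCI-H82 cancer cells was assessed with the Alamar Blue assay. Cells were seeded into 96 well plates at 2×10^5 cells/ml, and the following day compounds were added at twice the indicated concentration in an equal volume of media. After 72 hours of exposure, IC50 values were determined from triplicate experiments.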

Another data set relates to HCT-116. Described as above. Conditions: Homo sapiens, HCT-116. The format is cell-based.
A further data set has as its system Jurkat. The data set is described as above. The format is cell-based. Conditions: Homo sapiens, Jurkat. The method, boiled down: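 Jurkat cells were plated at 2×10^5 cells/ml in 96 well plates, and the next day test compounds at twice the indicated concentrations were added in an equal volume of media. After 72 hours of exposure, proliferation or killing of the cancer cells was assessed with the Alamar Blue assay. Experiments were done in triplicate.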

The test system of another data set is U937. The description is as above. The format is cell-based. The note with it: Homo sapiens, U-937.
A short description of data set [2]: Microsomal stability in human liver microsomes. The format is in vitro ADME.
For a further data set, the target named is T1, PFKFB3 (Homo sapiens, UniProt Q16875).
T1 construct: GST
The data set is described as follows: Inhibition of recombinant PFKFB3 kinase activity (ADP Glow assay). The format is biochemical. The note with it: 250 nM analog concentration; read-out: % Inhibition of PFKFB3 Enzymatic Activity. How it is done:
PFKFB3 was prepared by expression in E. coli and purified by GST column and column chromatography. […] The recombinant protein was pure and active as determined by the results of a kinase activity assay commercially available (such as ADP Glow® assay, […]). The same assay was used to determine the inhibition of the protein and the results are shown in Table 5 below (IC50 values or percent inhibition at a fixed concentration). Results confirmed that the compounds of the invention have low nanomolar IC50 values, interacting with PFKFB3 and inhibiting its enzymatic activity.
For orientation: In ADP-Glo the light output rises with the ADP produced.

Data set [3] can be described thus: Cell permeability in Caco2 monolayers. Conditions: human, Caco-2, Caco2 cells, pH 7.4. The format is in vitro ADME. An excerpt: (§1) The determination of the permeability in Caco2 or MDR1-MDCK cells is widely used when screening compounds to assess cell permeability, intestinal drug transport and predict absorption rates and to ascertain if a compound might be a Pgp substrate and have cross the blood brain barrier. […] Comparison of the apical to basal (A-B) and basal to apical (B-A) values show if a compound is actively effluxed out the cells and if it is a Pgp substrate. […] Briefly, cell permeability and transport mechanisms in Caco-2 and MDR1-MDCK monolayers experiments were performed in triplicate in the apical-to-basolateral and basolateral-to-apical direction using Transwell wells containing either Caco-2 or MDR1-MDCK monolayers. A modified Hanks buffer pH 7.4 was used in both reservoir and receiver wells with the addition of 1% BSA in the receiver side. Confluent monolayers were used and their integrity was verified using reference compounds (Atenolol as a low permeability reference compound and Propanolol as a high permeability reference compound). A sample in the basolateral and apical sides was taken after 2 hours and the concentration measured by LC/MS-MS.

Data set [4] in a line: Cell permeability in MDR1-MDCK monolayers. Conditions: dog, MDR1-MDCK cells, pH 7.4. The format is in vitro ADME.
Source text: as §1

A further data set has as its system H22. Put plainly: Cell proliferation, MTT assay, 48 hours. The format is cell-based. The note with it: Mus musculus. How it is done:
The ability of the compounds described herein to kill or inhibit the proliferation of cancer cells was measured using either the MTT assay, or the Alamar Blue assay, or the Cell Titer Glow® assay using 48 or 72 hours exposure. […] The procedures are briefly described below. Cells of the desired tumor cell line were plated at 2×10^5 cells/ml in 96 well plates. Twice the indicated concentrations of the compounds of the invention were added to cells the following day in an equal volume of media. 72 hours later, cells were lysed and subjected to ATP determination using the CellTiter Glo-Luminescent Cell Viability Assay kit (Promega, Madison, Wis.). Experiments were done in triplicate. When using the MTT assay or the Alamar blue assay, the experimental conditions are essentially similar; at the end of the incubation period, 20 microliters of the MTT solution is added per well and the samples are incubated for an additional four hours, rinsed, and the absorbance at 570 nm measured. […] Table 2 lists the IC50 values for the compounds of the invention in several cell lines including Jurkat, Calu-6, NCI-H82, U937, HCT-116, and MDA-MB-231 cancer cell lines.

[5] abbreviates: aqueous with cosolvent or surfactant or cyclodextrin, Cre:EtOH:Saline 5:5:90 mixture, 1 hour at room temperature, read-out: Solubility Cre:EtOH:Saline.
[6] abbreviates: ethanol, organic solvent or mixture, EtOH, 1 hour at room temperature, read-out: Solubility EtOH.
[7] abbreviates: organic solvent or mixture, 1:1 cremophor EL-P:ethanol mixture, 1 hour at room temperature, read-out: Solubility Cre:EtOH.
The mark [8] stands for this setting: organic solvent or mixture, Acetone, 1 hour at room temperature, read-out: Solubility Acetone.
Where [9] appears, read: organic solvent or mixture, Cremophor, 1 hour at room temperature, read-out: Solubility Cremophor.
Setting [10] is: organic solvent or mixture, DCM, 1 hour at room temperature, read-out: Solubility DCM.
Where [11] appears, read: organic solvent or mixture, Tween 80, 1 hour at room temperature, read-out: Solubility Tween 80.
The mark [12] stands for this setting: organic solvent or mixture, Tween80:EtOH 6:4 mixture, 1 hour at room temperature, read-out: Solubility Twee80:EtOH.
Setting [13] is: 60 min incubation, 1.0 mg/ml microsomal protein, 1 mM NADPH, 37° C.

Usually inhibition stands for how much of the control response was suppressed. In general, solubility refers to the dissolved amount per volume that the medium holds. In general, IC50 refers to the concentration needed to halve the response being measured. As usually defined, the Papp A→B is how fast a substance crosses the layer from the apical side. What is called Papp B→A is how fast a substance crosses the layer from the basolateral side.

Values after ≈ are worked out from the molar mass of the structure shown. Read-outs that look alike come from different tables or passages of the source.

T1 sequence (Q16875 whole entry, species assumed): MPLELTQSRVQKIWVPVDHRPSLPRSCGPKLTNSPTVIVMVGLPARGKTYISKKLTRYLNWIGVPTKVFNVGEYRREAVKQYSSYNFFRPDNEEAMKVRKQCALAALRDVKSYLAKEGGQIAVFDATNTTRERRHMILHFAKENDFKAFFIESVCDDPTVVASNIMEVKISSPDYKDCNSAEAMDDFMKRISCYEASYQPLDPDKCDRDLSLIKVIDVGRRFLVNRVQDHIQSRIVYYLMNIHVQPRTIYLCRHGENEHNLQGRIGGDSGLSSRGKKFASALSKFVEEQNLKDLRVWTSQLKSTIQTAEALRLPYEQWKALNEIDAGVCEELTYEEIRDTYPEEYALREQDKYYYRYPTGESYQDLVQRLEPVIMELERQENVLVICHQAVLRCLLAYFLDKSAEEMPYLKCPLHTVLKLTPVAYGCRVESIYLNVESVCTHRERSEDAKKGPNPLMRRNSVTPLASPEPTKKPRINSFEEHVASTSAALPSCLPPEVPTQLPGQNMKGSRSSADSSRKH

In the data set on Jurkat cells, `O=C(c1ccncc1)c1cc2c(ccc3ccccc32)[nH]1` [ACT-PFK-095, (3H-Benzo[e]indol-2-yl)-pyridin-4-yl-methanone] yielded an inhibition at 5 µM of 48%. Besides, the solubility at 1 h turned out to be 300 µg/mL (≈ 1.1 mM) in data set [1] (setting [5]); 1600 µg/mL (≈ 5.88 mM) in [1] (setting [6]); 10000 µg/mL (≈ 36.7 mM) in data set [1] (setting [7]); 5000 µg/mL (≈ 18.4 mM) in data set [1] (setting [8]); 6900 µg/mL (≈ 25.3 mM) in data set [1] (setting [9]); 3400 µg/mL (≈ 12.5 mM) in data set [1] (setting [10]). For the same molecule, the solubility at 1 h worked out at 7400 µg/mL (≈ 27.2 mM) in data set [1] (setting [11]) and 9700 µg/mL (≈ 35.6 mM) in data set [1] (setting [12]). Besides, the IC50 with MDA-MB-231 was 395 nM; in the data set with Calu-6, 208 nM; in the data set on NCI-H82, 498 nM; in the data set on HCT-116, 2400 nM; with Jurkat, 1500 nM; in the data set on U937, 50 nM. In addition, the figures for the “HLM, Mean metabolized (%)” value in [2] (0 min) and in data set [2] (setting [13]) were 0.0% and 26%, respectively. Further, the inhibition at 0.25 µM on PFKFB3 is 26.2%. The molecule further gave an apical-to-basolateral permeability (Papp A→B) at 2 h in data set [3] (apical to basal) of 16.2 ×10⁻⁶ cm/s. The same molecule returned a Papp B→A at 2 h in [3] (basal to apical) of 8.9 ×10⁻⁶ cm/s.

In data set [4] (apical to basal), `Nc1ccc(C(=O)c2cc3c(ccc4ccccc43)[nH]2)cc1` [ACT-PFK-112, (4-Amino-phenyl)-(3H-benzo[e]indol-2-yl)-methanone] yielded a Papp A→B at 2 h of 7.8 ×10⁻⁶ cm/s. The molecule also registered a Papp B→A at 2 h in data set [4] (basal to apical) of 17.3 ×10⁻⁶ cm/s. In addition, the inhibition at 5 µM in the data set with Jurkat cells stood at 47%. Also, the IC50 in the data set with H22 was 513 nM; with MDA-MB-231 it was 205 nM; in the data set on Calu-6, 260 nM; in the data set with NCI-H82, 685 nM; in the data set on HCT-116, 1440 nM; in the data set on Jurkat, 625 nM. For the same molecule, the IC50 with U937 was 130 nM. The solubility at 1 h turned out to be 3700 µg/mL (≈ 12.9 mM) in [1] (setting [5]); 7400 µg/mL (≈ 25.8 mM) in [1] (setting [6]); 37600 µg/mL (≈ 131 mM) in data set [1] (setting [7]); 8200 µg/mL (≈ 28.6 mM) in [1] (setting [8]); 18600 µg/mL (≈ 65 mM) in data set [1] (setting [9]); 14000 µg/mL (≈ 48.9 mM) in [1] (setting [10]). Moreover, the values for the solubility at 1 h in data set [1] (setting [11]) and in data set [1] (setting [12]) were 18100 µg/mL (≈ 63.2 mM) and 35600 µg/mL (≈ 124 mM), respectively. Also, the “HLM, Mean metabolized (%)” value in data set [2] (0 min) amounted to 0.0%; in data set [2] (setting [13]), 82.7%. Further, the inhibition at 0.25 µM at PFKFB3 was found to be 81.5%.
